Source: PubChem BioAssay AID1845212 (Molecular Pharmacology Branch, DTP, NCI, 2023)

tested on: NCI-H719 tumor spheroids, viability; test: Anticancer human tumor NCI-H719 cell line growth inhibition; details: curve of first compound; second compound 1 µM; spheroids with HUVEC and MSC;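 also: spheroids exposed to compounds for seven days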;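 as to viability, T/C: percent viability relative to DMSO vehicle control as 100%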
Summary of the method: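 Complex spheroids of malignant cells with endothelial cells and mesenchymal stem cells; agents alone or combined, from near clinical Cmax (or 10 microM if unknown) down in half-log steps, 0.25% DMSO final.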

Compound | IC50
CNCc1ccc(-c2cc(-c3nc(-c4ccc(S(=O)(=O)C(C)C)cc4)cnc3N)on2)cc1 + Cn1nnc2c(C(N)=O)ncn2c1=O | 131 nM
Cc1sc2c(c1C)C(c1ccc(Cl)cc1)=NC(CC(=O)Nc1ccc(O)cc1)c1nnc(C)n1-2 (stereo not given) + Cn1nnc2c(C(N)=O)ncn2c1=O | 79.9 nM
Cn1ncnc1[C@H]1c2n[nH]c(=O)c3cc(F)cc(c23)N[C@@H]1c1ccc(F)cc1 + Cn1nnc2c(C(N)=O)ncn2c1=O | < 9.49 nM
O=C(c1cc(Cc2n[nH]c(=O)c3ccccc23)ccc1F)N1CCN(C(=O)C2CC2)CC1 + Cn1nnc2c(C(N)=O)ncn2c1=O | 1720 nM

same assay, conditions: curve of first compound; second compound 3.16 µM; spheroids with HUVEC and MSC

Compound | IC50
CNCc1ccc(-c2cc(-c3nc(-c4ccc(S(=O)(=O)C(C)C)cc4)cnc3N)on2)cc1 + Cn1nnc2c(C(N)=O)ncn2c1=O | 95.4 nM
Cc1sc2c(c1C)C(c1ccc(Cl)cc1)=NC(CC(=O)Nc1ccc(O)cc1)c1nnc(C)n1-2 (stereo not given) + Cn1nnc2c(C(N)=O)ncn2c1=O | 137 nM
Cn1ncnc1[C@H]1c2n[nH]c(=O)c3cc(F)cc(c23)N[C@@H]1c1ccc(F)cc1 + Cn1nnc2c(C(N)=O)ncn2c1=O | < 9.49 nM
O=C(c1cc(Cc2n[nH]c(=O)c3ccccc23)ccc1F)N1CCN(C(=O)C2CC2)CC1 + Cn1nnc2c(C(N)=O)ncn2c1=O | 1360 nM

same assay, conditions: curve of first compound; second compound 10 µM; spheroids with HUVEC and MSC

Compound | IC50
CNCc1ccc(-c2cc(-c3nc(-c4ccc(S(=O)(=O)C(C)C)cc4)cnc3N)on2)cc1 + Cn1nnc2c(C(N)=O)ncn2c1=O | 162 nM
Cc1sc2c(c1C)C(c1ccc(Cl)cc1)=NC(CC(=O)Nc1ccc(O)cc1)c1nnc(C)n1-2 (stereo not given) + Cn1nnc2c(C(N)=O)ncn2c1=O | 201 nM
Cn1ncnc1[C@H]1c2n[nH]c(=O)c3cc(F)cc(c23)N[C@@H]1c1ccc(F)cc1 + Cn1nnc2c(C(N)=O)ncn2c1=O | < 9.49 nM
O=C(c1cc(Cc2n[nH]c(=O)c3ccccc23)ccc1F)N1CCN(C(=O)C2CC2)CC1 + Cn1nnc2c(C(N)=O)ncn2c1=O | 1950 nM

same assay, conditions: curve of first compound; second compound 31.6 µM; spheroids with HUVEC and MSC

Compound | IC50
CNCc1ccc(-c2cc(-c3nc(-c4ccc(S(=O)(=O)C(C)C)cc4)cnc3N)on2)cc1 + Cn1nnc2c(C(N)=O)ncn2c1=O | 94.4 nM
Cc1sc2c(c1C)C(c1ccc(Cl)cc1)=NC(CC(=O)Nc1ccc(O)cc1)c1nnc(C)n1-2 (stereo not given) + Cn1nnc2c(C(N)=O)ncn2c1=O | 71 nM
Cn1ncnc1[C@H]1c2n[nH]c(=O)c3cc(F)cc(c23)N[C@@H]1c1ccc(F)cc1 + Cn1nnc2c(C(N)=O)ncn2c1=O | < 9.49 nM
O=C(c1cc(Cc2n[nH]c(=O)c3ccccc23)ccc1F)N1CCN(C(=O)C2CC2)CC1 + Cn1nnc2c(C(N)=O)ncn2c1=O | < 94.9 nM

same assay, conditions: curve of first compound; second compound 100 µM; spheroids with HUVEC and MSC

Compound | IC50
CNCc1ccc(-c2cc(-c3nc(-c4ccc(S(=O)(=O)C(C)C)cc4)cnc3N)on2)cc1 + Cn1nnc2c(C(N)=O)ncn2c1=O | 33.6 nM
Cc1sc2c(c1C)C(c1ccc(Cl)cc1)=NC(CC(=O)Nc1ccc(O)cc1)c1nnc(C)n1-2 (stereo not given) + Cn1nnc2c(C(N)=O)ncn2c1=O | 54.1 nM
Cn1ncnc1[C@H]1c2n[nH]c(=O)c3cc(F)cc(c23)N[C@@H]1c1ccc(F)cc1 + Cn1nnc2c(C(N)=O)ncn2c1=O | < 9.49 nM
O=C(c1cc(Cc2n[nH]c(=O)c3ccccc23)ccc1F)N1CCN(C(=O)C2CC2)CC1 + Cn1nnc2c(C(N)=O)ncn2c1=O | < 94.9 nM

same assay, conditions: second compound 1 µM; first compound 0.00949 µM; stronger effect = lower value; spheroids with HUVEC and MSC

Compound | viability, T/C
CNCc1ccc(-c2cc(-c3nc(-c4ccc(S(=O)(=O)C(C)C)cc4)cnc3N)on2)cc1 + Cn1nnc2c(C(N)=O)ncn2c1=O | 88.2%
Cc1sc2c(c1C)C(c1ccc(Cl)cc1)=NC(CC(=O)Nc1ccc(O)cc1)c1nnc(C)n1-2 (stereo not given) + Cn1nnc2c(C(N)=O)ncn2c1=O | 90.8%
Cn1ncnc1[C@H]1c2n[nH]c(=O)c3cc(F)cc(c23)N[C@@H]1c1ccc(F)cc1 + Cn1nnc2c(C(N)=O)ncn2c1=O | 18.9%

same assay, conditions: second compound 1 µM; first compound 0.03 µM; stronger effect = lower value; spheroids with HUVEC and MSC

Compound | viability, T/C
CNCc1ccc(-c2cc(-c3nc(-c4ccc(S(=O)(=O)C(C)C)cc4)cnc3N)on2)cc1 + Cn1nnc2c(C(N)=O)ncn2c1=O | 95%
Cc1sc2c(c1C)C(c1ccc(Cl)cc1)=NC(CC(=O)Nc1ccc(O)cc1)c1nnc(C)n1-2 (stereo not given) + Cn1nnc2c(C(N)=O)ncn2c1=O | 80.5%
Cn1ncnc1[C@H]1c2n[nH]c(=O)c3cc(F)cc(c23)N[C@@H]1c1ccc(F)cc1 + Cn1nnc2c(C(N)=O)ncn2c1=O | 7.46%

same assay, conditions: second compound 1 µM; first compound 0.0949 µM; stronger effect = lower value; spheroids with HUVEC and MSC

Compound | viability, T/C
CNCc1ccc(-c2cc(-c3nc(-c4ccc(S(=O)(=O)C(C)C)cc4)cnc3N)on2)cc1 + Cn1nnc2c(C(N)=O)ncn2c1=O | 43.5%
Cc1sc2c(c1C)C(c1ccc(Cl)cc1)=NC(CC(=O)Nc1ccc(O)cc1)c1nnc(C)n1-2 (stereo not given) + Cn1nnc2c(C(N)=O)ncn2c1=O | 41.9%
Cn1ncnc1[C@H]1c2n[nH]c(=O)c3cc(F)cc(c23)N[C@@H]1c1ccc(F)cc1 + Cn1nnc2c(C(N)=O)ncn2c1=O | 7.66%
O=C(c1cc(Cc2n[nH]c(=O)c3ccccc23)ccc1F)N1CCN(C(=O)C2CC2)CC1 + Cn1nnc2c(C(N)=O)ncn2c1=O | 73.7%

same assay, conditions: second compound 1 µM; first compound 0.3 µM; stronger effect = lower value; spheroids with HUVEC and MSC

Compound | viability, T/C
CNCc1ccc(-c2cc(-c3nc(-c4ccc(S(=O)(=O)C(C)C)cc4)cnc3N)on2)cc1 + Cn1nnc2c(C(N)=O)ncn2c1=O | 39%
Cc1sc2c(c1C)C(c1ccc(Cl)cc1)=NC(CC(=O)Nc1ccc(O)cc1)c1nnc(C)n1-2 (stereo not given) + Cn1nnc2c(C(N)=O)ncn2c1=O | 20.6%
Cn1ncnc1[C@H]1c2n[nH]c(=O)c3cc(F)cc(c23)N[C@@H]1c1ccc(F)cc1 + Cn1nnc2c(C(N)=O)ncn2c1=O | 7.07%
O=C(c1cc(Cc2n[nH]c(=O)c3ccccc23)ccc1F)N1CCN(C(=O)C2CC2)CC1 + Cn1nnc2c(C(N)=O)ncn2c1=O | 56%

same assay, conditions: second compound 1 µM; first compound 0.949 µM; stronger effect = lower value; spheroids with HUVEC and MSC

Compound | viability, T/C
CNCc1ccc(-c2cc(-c3nc(-c4ccc(S(=O)(=O)C(C)C)cc4)cnc3N)on2)cc1 + Cn1nnc2c(C(N)=O)ncn2c1=O | 8.27%
